The experiment deals with T1, lipase from Aspergillus niger (LAN).
T1 construct: gene lipA; commercial Sigma-Aldrich lipase preparation from Aspergillus niger, free (not immobilized)
Nature of the experiment: p-nitrophenol release at […] nm, Hanes-Woolf plot. The experiment is classed as biochemical. The following applies: free enzyme, 30 °C, 2 min, 1000 rpm; substrate solution range printed as 0.005–1.5 M; apparent.

Each structure is given as a SMILES string.

What is called Km is the concentration of substrate that gives half-maximal velocity. In the case of `CCCCCCCCCCCCCCCC(=O)Oc1ccc([N+](=O)[O-])cc1` [p-nitrophenyl palmitate], the Km came to 580 ± 20 µM.

(Values after PMC9068721, “Evaluation of MxOy/fucoidan hybrid system and their application in lipase immobilization process” (Scientific Reports, 2022).)
